Measured values published in patent publication US11174262B2, “Compounds, compositions and methods” (Denali Therapeutics Inc., priority 2017, dated 2021).

What follows are compounds tested against GST-hRIPK1 (8-327) (Homo sapiens (Human), UniProt Q13546) (assay: Fluorescent Polarization Binding (FP Binding) assay, RIPK1). Conditions: 10 nM GST-hRIPK1 (8-327), 5 nM fluorescent-labeled ligand, RT, 30 min, mean of minimum two experiments.
GST-hRIPK1 (8-327), sequence (Q13546 8-327): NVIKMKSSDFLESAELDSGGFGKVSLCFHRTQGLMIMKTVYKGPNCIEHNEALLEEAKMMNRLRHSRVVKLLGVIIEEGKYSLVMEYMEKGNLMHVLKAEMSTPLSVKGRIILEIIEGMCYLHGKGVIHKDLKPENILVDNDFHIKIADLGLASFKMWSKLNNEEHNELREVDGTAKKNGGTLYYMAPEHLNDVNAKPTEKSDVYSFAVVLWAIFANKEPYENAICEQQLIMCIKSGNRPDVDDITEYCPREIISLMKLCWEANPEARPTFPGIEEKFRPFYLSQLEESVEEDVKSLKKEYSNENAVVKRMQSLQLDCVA
Method: Fluorescent Polarization Binding (FP Binding) assay (Berger S. B. et al. (2015) Cell Death Discovery, 1: 15009; Maki J. L. et al. (2012) Anal Biochem., 427 (2): 164-174) was performed in polystyrene low volume 384-well black plate, at Room Temperature (RT) in a final volume of 10.1 μL/well using 10 nM of GST-hRIPK1 (8-327) enzyme and 5 nM of fluorescent-labeled ligand (14-(2-{[3-({2-{[4-(cyanomethyl)phenyl]amino}-6-[(5-cyclopropyl-1H-pyrazol-3-yl)amino]-4-pyrimidinyl}amino) propyl]amino}-2-oxoethyl)-16,16,18,18-tetramethyl-6,7,7a,8a,9,10,16,18-octahydrobenzo [2″,3″]indolizino[8″,7″:5′,6′]pyrano [3′,2′:3,4]pyrido[1,2-a]indol-5-ium-2-sulfonate.
Test compounds were serially diluted in DMSO at 100 fold final concentrations in the assay (1% DMSO final). In each well of a 384-well Plate were dispensed 0.1 μL of compound solution (or DMSO for controls) followed by 5 μL of GST-hRIPK1 (8-327) at twice the final concentrations in assay buffer (50 mM HEPES pH 7.5, 10 mM NaCl, 50 mM MgCl2, 0.02% CHAPS, 0.5 mM DTT and 0.01% Pluronic F127). For negative control the enzyme addition was replaced by assay buffer only.
After addition of 5 μL of fluorescent-labeled ligand at twice the final concentrations in assay buffer, the plate was incubated at RT for […]. At the end, the binding was measured as FP value with the Envision (PerkinElmer) plate reader using filter for an excitation λ=531 nm FP and an emission λ=595 nm FP (S & P-pol).
Test compound inhibition was expressed as percent inhibition of internal assay controls. For concentration response curves, normalized data is fit and IC50 determined using XL-fit (IDBS) for Excel. IC50 were averaged to determine a mean value, for a minimum of two independent experiments.
Receptor interacting protein kinase 1 activity of exemplary compounds was determined according to the above general procedures.
In the case of `Cc1cnc(C2CCN3CCCC(C)(C(F)F)C(=O)N23)cn1` (single isomer, unassigned) [Example 13, 6-(difluoromethyl)-6-methyl-3-(5-methylpyrazin-2-yl)-1,2,3,7,8,9-hexahydropyrazolo[1,2-a]diazepin-5-one], the IC50 is reported as < 1000 nM.
`Cc1cnc(C2CCN3CCCC(C)(C(F)F)C(=O)N23)cn1` (single isomer, unassigned) [Example 12, 6-(difluoromethyl)-6-methyl-3-(5-methylpyrazin-2-yl)-1,2,3,7,8,9-hexahydropyrazolo[1,2-a]diazepin-5-one] was tested, and the IC50 was < 1000 nM.
`CC1(C)CCCN2CCC(c3cncc(C#N)c3)N2C1=O` (racemic) [Example 9, 5-(6,6-dimethyl-5-oxo-1,2,3,7,8,9-hexahydropyrazolo[1,2-a]diazepin-3-yl)pyridine-3-carbonitrile] was tested, and the IC50 was < 1000 nM.
In the case of `CC1(C(F)F)CCCN2CCC(c3cncc(F)c3)N2C1=O` (single isomer, unassigned) [Example 10, 6-(difluoromethyl)-3-(5-fluoro-3-pyridyl)-6-methyl-1,2,3,7,8,9-hexahydropyrazolo[1,2-a]diazepin-5-one], the IC50 is reported as < 1000 nM.
In the case of `CC1(C)CCCN2CCC(c3cccc(F)c3)N2C1=O` (single isomer, unassigned) [Example 5, 3-(3-fluorophenyl)-6,6-dimethyl-1,2,3,7,8,9-hexahydropyrazolo[1,2-a]diazepin-5-one], the IC50 is reported as < 1000 nM.
In the case of `CC1(C(F)F)CCCN2CCC(c3cncc(C#N)c3)N2C1=O` (single isomer, unassigned) [Example 15, 5-[6-(difluoromethyl)-6-methyl-5-oxo-1,2,3,7,8,9-hexahydropyrazolo[1,2-a]diazepin-3-yl]pyridine-3-carbonitrile], the IC50 is reported as < 1000 nM.
With `CC1(C(F)F)CCCN2CCC(c3cncc(F)c3)N2C1=O` (racemic) [Example 11, 6-(difluoromethyl)-3-(5-fluoro-3-pyridyl)-6-methyl-1,2,3,7,8,9-hexahydropyrazolo[1,2-a]diazepin-5-one] the IC50 was < 1000 nM.
With `Cc1cnc(C2CCN3CCCC(C)(C)C(=O)N23)cn1` (single isomer, unassigned) [Example 2, 6,6-dimethyl-3-(5-methylpyrazin-2-yl)-1,2,3,7,8,9-hexahydropyrazolo[1,2-a]diazepin-5-one] the IC50 was < 1000 nM.
In the case of `CCC1(C)COC[C@H]2CC[C@@H](c3cccc(F)c3)N2C1=O` (stereo partly drawn) [Example 8, (7S,9aR)-4-ethyl-7-(3-fluorophenyl)-4-methyl-1,3,7,8,9,9a-hexahydropyrrolo[2,1-c][1,4]oxazepin-5-one], the IC50 is reported as 1000 to 30000 nM.
`CCC1(C(F)F)CCCN2CCC(c3cnc(C)cn3)N2C1=O` (single isomer, unassigned) [Example 17, 6-(difluoromethyl)-6-ethyl-3-(5-methylpyrazin-2-yl)-1,2,3,7,8,9-hexahydropyrazolo[1,2-a]diazepin-5-one] was tested, and the IC50 was < 1000 nM.
With `CC1(C)CCCN2CCC(c3cncc(F)c3)N2C1=O` (racemic) [Example 1, 3-(5-fluoro-3-pyridyl)-6,6-dimethyl-1,2,3,7,8,9-hexahydropyrazolo[1,2-a]diazepin-5-one] the IC50 was < 1000 nM.
With `CC1(C)CCCN2CCC(c3cc(F)cc(C#N)c3)N2C1=O` (stereo not drawn) [Example 6, 3-(6,6-dimethyl-5-oxo-1,2,3,7,8,9-hexahydropyrazolo[1,2-a]diazepin-3-yl)-5-fluoro-benzonitrile] the IC50 was < 1000 nM.
In the case of `O=C1N2C(c3cncc(F)c3)CCN2CCCC12CC2` (racemic) [Example 16, 3-(5-fluoro-3-pyridyl)spiro[1,2,3,7,8,9-hexahydropyrazolo[1,2-a]diazepine-6,1′-cyclopropane]-5-one], the IC50 is reported as 1000 to 30000 nM.
In the case of `CC1(C)CCCN2CCC(c3cc(F)cc(F)c3)N2C1=O` (single isomer, unassigned) [Example 3, 3-(3,5-difluorophenyl)-6,6-dimethyl-1,2,3,7,8,9-hexahydropyrazolo[1,2-a]diazepin-5-one], the IC50 is reported as < 1000 nM.
`CC1(C)CCCN2CCC(c3ccc(C#N)cc3)N2C1=O` (stereo not drawn) [Example 7, 4-(6,6-dimethyl-5-oxo-1,2,3,7,8,9-hexahydropyrazolo[1,2-a]diazepin-3-yl)benzonitrile] was tested, and the IC50 was < 1000 nM.
In the case of `CCC1(C(F)F)CCCN2CCC(c3cnc(C)cn3)N2C1=O` (racemic) [Example 18, 6-(difluoromethyl)-6-ethyl-3-(5-methylpyrazin-2-yl)-1,2,3,7,8,9-hexahydropyrazolo[1,2-a]diazepin-5-one], the IC50 is reported as < 1000 nM.
`CC1(C(F)F)CCCN2CCC(c3cncc(C#N)c3)N2C1=O` (single isomer, unassigned) [Example 14, 5-[6-(difluoromethyl)-6-methyl-5-oxo-1,2,3,7,8,9-hexahydropyrazolo[1,2-a]diazepin-3-yl]pyridine-3-carbonitrile] was tested, and the IC50 was < 1000 nM.
For `CC1(C)CCCN2CCC(c3ccc(F)c(F)c3)N2C1=O` (single isomer, unassigned) [Example 4, 3-(3,4-difluorophenyl)-6,6-dimethyl-1,2,3,7,8,9-hexahydropyrazolo[1,2-a]diazepin-5-one], the IC50 was < 1000 nM.
